From paper PMC8433221 (Scientific Reports, 2021)

Target: T1, PptAb-ACP complex (S2105A ACP) (Mycobacteroides abscessus, UniProt B1MD73)
T1 construct: gene MAB_3117c

`CCNC(=N)NC(=O)Nc1c(CC)cccc1CC` [compound 1, 1-[(2,6-diethylphenyl)-3-N-ethylcarbamimodoyl]urea] was tested, and the “X-ray crystallography, 2.5 Å, co-crystallisation” value was “complex formed between PptAb and its cognate ACP domain in the presence of CoA”.
